Test results as given in the supplement of paper PMC13380429.

Key:
Settings in all cases: 72 h
Caco-2 [1] = assay: cell viability relative to DMSO; higher = less toxic
Calu-3 [2] = assay: as above
HepG2 [3] = assay: as above
U2OS [4] = assay: as above
Vero E6 [5] = assay: as above
Caco-2 [6] = assay: relative viability EC50 (midpoint between 100% and the lowest measured viability); higher = less toxic
Calu-3 [7] = assay: as above
HepG2 [8] = assay: as above
U2OS [9] = assay: as above
Vero E6 [10] = assay: as above
Caco-2 [11] = assay: drug sensitivity score (DSS) for viability; higher = more toxic; extreme values may be limits of the assay
Calu-3 [12] = assay: as above
HepG2 [13] = assay: as above
U2OS [14] = assay: as above
Vero E6 [15] = assay: as above

| Structure (SMILES) | cell viability (Caco-2 [1]; 1 nM) [%] | cell viability (Caco-2 [1]; 10 nM) [%] | cell viability (Caco-2 [1]; 100 nM) [%] | cell viability (Caco-2 [1]; 1000 nM) [%] | cell viability (Caco-2 [1]; 10000 nM) [%] | cell viability (Calu-3 [2]; 1 nM) [%] | cell viability (Calu-3 [2]; 10 nM) [%] | cell viability (Calu-3 [2]; 100 nM) [%] | cell viability (Calu-3 [2]; 1000 nM) [%] | cell viability (Calu-3 [2]; 10000 nM) [%] | cell viability (HepG2 [3]; 1 nM) [%] | cell viability (HepG2 [3]; 10 nM) [%] | cell viability (HepG2 [3]; 100 nM) [%] | cell viability (HepG2 [3]; 1000 nM) [%] | cell viability (HepG2 [3]; 10000 nM) [%] | cell viability (U2OS [4]; 1 nM) [%] | cell viability (U2OS [4]; 10 nM) [%] | cell viability (U2OS [4]; 100 nM) [%] | cell viability (U2OS [4]; 1000 nM) [%] | cell viability (U2OS [4]; 10000 nM) [%] | cell viability (Vero E6 [5]; 1 nM) [%] | cell viability (Vero E6 [5]; 10 nM) [%] | cell viability (Vero E6 [5]; 100 nM) [%] | cell viability (Vero E6 [5]; 1000 nM) [%] | cell viability (Vero E6 [5]; 10000 nM) [%] | relative viability EC50 (Caco-2 [6]) [µM] | relative viability EC50 (Calu-3 [7]) [µM] | relative viability EC50 (HepG2 [8]) [µM] | relative viability EC50 (U2OS [9]) [µM] | relative viability EC50 (Vero E6 [10]) [µM] | drug sensitivity score (Caco-2 [11]) | drug sensitivity score (Calu-3 [12]) | drug sensitivity score (HepG2 [13]) | drug sensitivity score (U2OS [14]) | drug sensitivity score (Vero E6 [15]) |
| --- | --- | --- | --- | --- | --- | --- | --- | --- | --- | --- | --- | --- | --- | --- | --- | --- | --- | --- | --- | --- | --- | --- | --- | --- | --- | --- | --- | --- | --- | --- | --- | --- | --- | --- | --- |
| COc1ccc(C2CC(c3ccccc3)=NN2c2ccc(S(N)(=O)=O)cc2)cc1 (stereo not given) [ML141] | 94.9 | 95.2 | 97.6 | 97.8 | 80.7 | 85.8 | 105 | 105 | 110 | 104 | 106 | 102 | 102 | 104 | 94.8 | 102 | 110 | 93.3 | 108 | 94 | 112 | 103 | 109 | 95.9 | 102 | > 10 | > 10 | > 10 | > 10 | > 10 | 0.8 | 0 | 0 | 0 | 0 |
| COCc1nc2c([nH]1)c(=O)n(C)c(=O)n2CC(C)C [MMPX] | 91.8 | 91.8 | 96.9 | 95.7 | 96.3 | 102 | 100 | 98.1 | 103 | 96 | 98 | 94 | 101 | 94.9 | 100 | 95.8 | 100 | 96.4 | 104 | 98.2 | 97.8 | 94.2 | 99.2 | 97.5 | 99.2 | > 10 | > 10 | > 10 | > 10 | > 10 | 0 | 0 | 0 | 0 | 0 |
| CC[N+](C)(CC)CC(=O)Nc1c(C)cccc1C [N-methyllidocaine-iodide] | 88 | 101 | 103 | 94.8 | 102 | 98.2 | 102 | 102 | 96.7 | 102 | 106 | 95.4 | 93.7 | 111 | 107 | 95.1 | 101 | 96.7 | 97.4 | 100 | 98.7 | 96.2 | 99.2 | 102 | 101 | > 10 | > 10 | > 10 | > 10 | > 10 | 0 | 0 | 0 | 0 | 0 |
